The results in this text go back to the Kinase Knowledgebase extract (Sharma et al. 2016).

As usually defined, the Ki is the dissociation constant of the complex between target and ligand, obtained from inhibition or displacement. Read a low Ki as higher affinity. One may read the inhibition as the drop in the measured response relative to a control, in per cent.

The target of one test is CDK2 (UniProt P24941). Put plainly: Enzyme Assay.
Conditions: not given
For the compound `Nc1nc(Nc2ccc(S(N)(=O)=O)cc2)sc1-c1nc(-c2cc3ccccc3s2)cs1`, the Ki amounted to 3200 nM.

For the compound `COc1cc(O)c(Br)c(-c2csc(-c3sc(Nc4cc(OC)c(OC)c(OC)c4)nc3N)n2)c1`, the Ki amounted to 710 nM.

In the case of `Nc1nc(Nc2ccc(S(N)(=O)=O)cc2)sc1-c1nc(C(=O)Nc2ccccc2)cs1`, the Ki is 58 nM.

Still in this test, the particulars now being: concentration not given here.
On to `COc1cc(Nc2nc(N)c(-c3noc(-c4ccsc4)n3)s2)cc(OC)c1OC`, for which the inhibition turned out to be 21%.

Regarding `COc1cc(Nc2nc(N)c(-c3nc(-c4ccc5c(c4)CCC(=O)N5)cs3)s2)cc(OC)c1OC`, the inhibition is -7.8%.

As for `Cc1c(-c2csc(-c3sc(Nc4ccc(S(N)(=O)=O)cc4)nc3N)n2)sc2ccc(Cl)cc12`, the inhibition was determined as 61.5%.

Turning to `COc1ccc(OC)c(-c2csc(-c3sc(Nc4cc(OC)c(OC)c(OC)c4)nc3N)n2)c1`, the inhibition stood at 12.2%.

Take `COc1cc(Nc2nc(N)c(-c3nc(-c4cc(C)c(O)c(C)c4)cs3)s2)cc(OC)c1OC`: the inhibition came out at 28.4%.

Regarding `CC(C)c1ccc(Nc2nc(N)c(-c3nc(-c4ccc5oc6ccccc6c5c4)cs3)s2)cc1`, the inhibition was -4.3%.

On to `CCCCCc1ccc(-c2csc(-c3sc(Nc4cc(OC)c(OC)c(OC)c4)nc3N)n2)cc1`, for which the inhibition was found to be 11.3%.

Consider `COc1cc(Nc2nc(N)c(-c3nc(-c4c(Cl)c(Cl)nc(Cl)c4Cl)cs3)s2)cc(OC)c1OC`, for which the inhibition worked out at 10.3%.

With `COc1cc(Nc2nc(N)c(-c3nc(-c4ccc(F)cc4)cs3)s2)cc(OC)c1OC`, the inhibition amounted to 35%.

`COc1cc(Nc2nc(N)c(-c3nc(-c4ccc(C)cc4C)cs3)s2)cc(OC)c1OC`: the inhibition was 1.2%.

With `COc1cc(Nc2nc(N)c(-c3nc(-c4cc(-c5ccccc5)no4)cs3)s2)cc(OC)c1OC`, the inhibition turned out to be 11.2%.

On to `COc1ccccc1-c1csc(-c2sc(Nc3cc(OC)c(OC)c(OC)c3)nc2N)n1`, for which the inhibition is -3.5%.

Consider `COc1cc(Nc2nc(N)c(-c3nc(-c4csc5ccccc45)cs3)s2)cc(OC)c1OC`, for which the inhibition is 9.1%.

In the case of `CC(C)c1ccc(Nc2nc(N)c(-c3nc(-c4ccccc4)cs3)s2)cc1`, the inhibition was 20.9%.

For the compound `COc1cc(Nc2nc(N)c(-c3nc(-c4ccc(Cl)c([N+](=O)[O-])c4)cs3)s2)cc(OC)c1OC`, the inhibition was -4.8%.

As to `CCCCCc1ccc(-c2csc(-c3sc(Nc4ccc(S(N)(=O)=O)cc4)nc3N)n2)cc1`, the inhibition was -9.9%.

In the case of `COc1cc(Nc2nc(N)c(-c3nc(-c4ccc(Cl)c(Cl)c4)cs3)s2)cc(OC)c1OC`, the inhibition came out at 7.3%.

Take `COc1cc(Nc2nc(N)c(-c3nc(-c4ccccc4OC(=O)c4ccccc4)cs3)s2)cc(OC)c1OC`: the inhibition amounted to 4.6%.

In the case of `CCOC(=O)c1ccccc1-c1csc(-c2sc(Nc3cc(OC)c(OC)c(OC)c3)nc2N)n1`, the inhibition was 4.4%.

Turning to `CCCCCc1ccc(-c2csc(-c3sc(Nc4ccc(N(C)C)cc4)nc3N)n2)cc1`, the inhibition is -6%.

On to `Nc1nc(Nc2ccc(S(N)(=O)=O)cc2)sc1-c1nc(-c2ccc(F)cc2F)cs1`, for which the inhibition was 57%.

Consider `COc1cc(Nc2nc(N)c(-c3nc(-c4ccc(O)c(O)c4)cs3)s2)cc(OC)c1OC`, for which the inhibition was -10.3%.

As for `COc1cc(Nc2nc(N)c(-c3nc(-c4cccc([N+](=O)[O-])c4)cs3)s2)cc(OC)c1OC`, the inhibition was found to be 6.6%.

On to `COc1cc(Nc2nc(N)c(-c3nc(-c4ccc(C(F)(F)F)cc4)cs3)s2)cc(OC)c1OC`, for which the inhibition came to 13.9%.

Consider `CN(C)c1ccc(Nc2nc(N)c(-c3nc(-c4ccccc4[N+](=O)[O-])cs3)s2)cc1`, for which the inhibition was found to be 8.3%.

Turning to `Nc1nc(Nc2ccc(S(N)(=O)=O)cc2)sc1C1=NC2(O)OCCC2S1` (centres undefined), the inhibition was 29%.

For `Nc1nc(Nc2ccc(S(N)(=O)=O)cc2)sc1-c1nc(-c2cccc([N+](=O)[O-])c2)cs1`, the inhibition worked out at 17.8%.

Regarding `CCc1cc2c(cc1-c1csc(-c3sc(Nc4cc(OC)c(OC)c(OC)c4)nc3N)n1)C(C)(C)CCC2(C)C`, the inhibition worked out at 13.8%.

Consider `COc1ccc2nc(-c3ccccc3)c(-c3csc(-c4sc(Nc5cc(OC)c(OC)c(OC)c5)nc4N)n3)cc2c1`, for which the inhibition was -2.7%.

As to `COc1cc(Nc2nc(N)c(-c3nc(-c4ccc([N+](=O)[O-])cc4)cs3)s2)cc(OC)c1OC`, the inhibition is -14.4%.

`COc1cc(Nc2nc(N)c(C3=NC(c4cc(F)c(C)c(Cl)c4)CS3)s2)cc(OC)c1OC` (centres undefined): the inhibition is -7.5%.

Turning to `COc1ccc(-c2csc(-c3sc(Nc4ccc(C(C)C)cc4)nc3N)n2)c(OC)c1`, the inhibition is -22.6%.

As to `CCOC(=O)c1cc(-c2csc(-c3sc(Nc4cc(OC)c(OC)c(OC)c4)nc3N)n2)on1`, the inhibition is 23.2%.

On to `COc1cc(Nc2nc(N)c(-c3nc(-c4cc5cc(Cl)ccc5o4)cs3)s2)cc(OC)c1OC`, for which the inhibition was -6%.

On to `CC(C)c1ccc(Nc2nc(N)c(-c3nc(-c4ccc(Cl)cc4Cl)cs3)s2)cc1`, for which the inhibition was 15.1%.

For `COc1cccc(-c2csc(-c3sc(Nc4cc(OC)c(OC)c(OC)c4)nc3N)n2)c1`, the inhibition was -0.4%.

As to `COc1cc(Nc2nc(N)c(-c3nc(-c4c(C)c(C)c(C)c(C)c4C)cs3)s2)cc(OC)c1OC`, the inhibition was found to be 19.8%.

In the case of `COc1cc(Nc2nc(N)c(-c3nc(-c4ccc(CC(=O)O)s4)cs3)s2)cc(OC)c1OC`, the inhibition is 26.7%.

Regarding `CCOC(=O)c1nc(-c2sc(Nc3ccc(S(N)(=O)=O)cc3)nc2N)sc1Cc1ccccc1`, the inhibition worked out at 36%.

On to `COc1cc(Nc2nc(N)c(-c3nc(-c4ccc5oc6ccccc6c5c4)cs3)s2)cc(OC)c1OC`, for which the inhibition worked out at 19%.

Consider `Nc1nc(Nc2ccc(S(N)(=O)=O)cc2)sc1-c1nc(-c2ccc(-c3ccccc3)cc2)cs1`, for which the inhibition was 0%.

On to `COc1cc(Nc2nc(N)c(-c3nc(-c4ccc(Cl)cc4)cs3)s2)cc(OC)c1OC`, for which the inhibition came to 0.1%.

With `CN(C)c1ccc(Nc2nc(N)c(-c3nc(-c4cccc(OC(=O)c5ccccc5)c4)cs3)s2)cc1`, the inhibition was 27.1%.

Turning to `COc1cc(Nc2nc(N)c(-c3nc(-c4cc(Br)c(Cl)s4)cs3)s2)cc(OC)c1OC`, the inhibition was -0.2%.

Take `COc1cc(Nc2nc(N)c(-c3nc(-c4ccc(-c5ccc(Cl)cc5Cl)o4)cs3)s2)cc(OC)c1OC`: the inhibition was 12.4%.

On to `N#Cc1ccc(-c2csc(-c3sc(Nc4ccc(S(N)(=O)=O)cc4)nc3N)n2)cc1`, for which the inhibition amounted to 13.3%.

`COc1cc(Nc2nc(N)c(-c3nc(-c4ccc(Cl)cc4Cl)cs3)s2)cc(OC)c1OC`: the inhibition was 3.8%.

Consider `COc1cc(Nc2nc(N)c(-c3nc(-c4cc(-c5ccc(Cl)c(Cl)c5)no4)cs3)s2)cc(OC)c1OC`, for which the inhibition came out at 17.5%.

Consider `COc1cc(Nc2nc(N)c(-c3nc(-c4ccccc4OC(C)=O)cs3)s2)cc(OC)c1OC`, for which the inhibition stood at 1.6%.

In the case of `COc1cc(Nc2nc(N)c(-c3nc(-c4ccc5c(c4)OCCO5)cs3)s2)cc(OC)c1OC`, the inhibition was 5.4%.

As for `COc1cc(Nc2nc(N)c(-c3nc(-c4ccc5c(c4)C(C)(C)CCC5(C)C)cs3)s2)cc(OC)c1OC`, the inhibition is 4.2%.
